Measured values taken from patent US7087648B1, “Methods for modulating macrophage proliferation using polyamine analogs” (The Regents of the University of California, priority 1997, dated 2006).

Tested on: CD14^+ cells
Test: In vivo response of blood CD14 cells (PCNA, CD69 expression) to DEHOP in AIDS lymphoma patients
Set-up: species or system human
Conditions: FIG. 7
Experimental: Four patients who had failed standard chemotherapy for treatment of their AIDS related lymphoma (therapy included at least CHOP chemotherapy up to six cycles). were evaluated for response to DEHOP administration in vivo. Patients had blood drawn pre administration of drug for evaluation of macrophage activation. This blood was also evaluated for response to DEHOP in vitro. […] Blood was obtained at 1 week after completion of the first and second cycles of therapy. The blood specimens were evaluated for macrophage proliferation (proliferating cell nuclear antigen, PCNA expression), and activation (percentage CD69 expression). Response to therapy was evaluated by direct observation of tumor (3 patients) and persistence or resolution of symptoms (1 patient with GI lymphoma).
Because of intercurrent medical problems the patients were not allowed to receive a third cycle of DEHOP and both patients ultimately relapsed, FL on day 47 and LT on day 54. All of the macrophage activation parameters increased in both patients prior to their clinical objective tumor relapse.

CCNCCCCNCCCCNCCCCNCC [DEHOP, 1,14-bis(ethylamino)-5,10-diazatetradecane]
PCNA/CD69 expression of CD14 cells (after administration of drug): generally decreased
expression of all macrophage activation parameters (day 35 after initiation of study): low to background level
